# Reference: patent US10526327B2, “Histone demethylase inhibitors” (CELGENE QUANTICEL RESEARCH, INC., priority 2013, dated 2020)
# Target: T1, Jarid1B (Homo sapiens, UniProt Q9UGL1)
# T1 construct: purchased BPS Bioscience or custom made by MolecularThroughput 50121
# T1 sequence (Q9UGL1 2-751): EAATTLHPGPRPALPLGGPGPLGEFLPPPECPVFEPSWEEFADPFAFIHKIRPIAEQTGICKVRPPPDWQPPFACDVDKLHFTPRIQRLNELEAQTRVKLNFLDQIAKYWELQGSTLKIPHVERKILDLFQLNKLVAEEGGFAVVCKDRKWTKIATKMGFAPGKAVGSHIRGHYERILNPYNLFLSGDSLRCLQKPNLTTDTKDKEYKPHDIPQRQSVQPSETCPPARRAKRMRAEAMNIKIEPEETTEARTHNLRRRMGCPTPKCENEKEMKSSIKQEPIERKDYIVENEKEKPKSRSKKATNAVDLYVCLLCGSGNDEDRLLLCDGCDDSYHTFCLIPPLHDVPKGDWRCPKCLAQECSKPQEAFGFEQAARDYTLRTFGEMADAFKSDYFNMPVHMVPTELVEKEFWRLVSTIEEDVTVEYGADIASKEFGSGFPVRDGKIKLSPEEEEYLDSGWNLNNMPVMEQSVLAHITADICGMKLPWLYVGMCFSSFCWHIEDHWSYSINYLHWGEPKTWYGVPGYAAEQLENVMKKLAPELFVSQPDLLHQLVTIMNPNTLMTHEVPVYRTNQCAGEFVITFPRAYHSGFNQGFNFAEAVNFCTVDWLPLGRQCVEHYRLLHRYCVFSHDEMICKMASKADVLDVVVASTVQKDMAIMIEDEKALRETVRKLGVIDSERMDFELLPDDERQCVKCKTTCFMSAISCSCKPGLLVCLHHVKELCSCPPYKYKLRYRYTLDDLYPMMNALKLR
# Assay: Jarid1B in vitro enzyme inhibition assay (TR-FRET)
# Assay type: biochemical
# Outline: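 TR-FRET read-out of demethylated product (Eu-anti-H3K4me1-2, streptavidin-APC) after EDTA quench; ratio 665/615 fitted to IC50. Reaction: 30 min at RT, 0.8 nM baculovirus Jarid1B residues 2-751, 2 μM α-ketoglutarate, 300 nM H3K4me3-biotin peptide, pH 7.3 buffer with Fe(II) and ascorbate.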
row,SMILES,IC50 [nM]
1,"CC(C)Oc1nc(O)c2ccncc2n1 [Example 1, 2-propan-2-yloxy-3H-pyrido[3,4-d]pyrimidin-4-one]",100 to 1000
2,"CCOc1nc(O)c2ccncc2n1 [Example 2, 2-ethoxypyrido[3,4-d]pyrimidin-4-ol]",≤ 100
3,"Oc1nc(OCCOCC(F)(F)F)nc2cnccc12 [Example 23, 2-[2-(2,2,2-trifluoroethoxy)ethoxy]pyrido[3,4-d]pyrimidin-4-ol]",100 to 1000
4,"CC(C)(O)CCOc1nc(O)c2ccncc2n1 [Example 24, 2-(3-hydroxy-3-methylbutoxy)pyrido[3,4-d]pyrimidin-4-ol]",≤ 100
5,"CC(CO)COc1nc(O)c2ccncc2n1 (stereo not drawn) [Example 25, 2-(3-hydroxy-2-methylpropoxy)pyrido[3,4-d]pyrimidin-4-ol]",100 to 1000
6,"Oc1nc(OCC2CCCO2)nc2cnccc12 (stereo not drawn) [Example 26, 2-(oxolan-2-ylmethoxy)pyrido[3,4-d]pyrimidin-4-ol]",1000 to 10000
7,"Oc1nc(OCC2CCOC2)nc2cnccc12 (stereo not drawn) [Example 27, 2-(oxolan-3-ylmethoxy)pyrido[3,4-d]pyrimidin-4-ol]",100 to 1000
8,"CC(=O)N(C)CCOc1nc(O)c2ccncc2n1 [Example 28, N-[2-(4-hydroxypyrido[3,4-d]pyrimidin-2-yl)oxyethyl]-N-methylacetamide]",100 to 1000
9,"CC(C)OCCOc1nc(O)c2ccncc2n1 [Example 29, 2-(2-propan-2-yloxyethoxy)pyrido[3,4-d]pyrimidin-4-ol]",100 to 1000
10,"Cn1ccc(COc2nc(O)c3ccncc3n2)n1 [Example 33, 2-[(1-methylpyrazol-3-yl)methoxy]pyrido[3,4-d]pyrimidin-4-ol]",1000 to 10000
11,"Oc1nc(OCC2CCCc3ccccc32)nc2cnccc12 (stereo not drawn) [Example 188, 2-(1,2,3,4-tetrahydronaphthalen-1-ylmethoxy)pyrido[3,4-d]pyrimidin-4-ol]",100 to 1000
12,"Oc1nc(OC2Cc3ccccc3C2)nc2cnccc12 [Example 189, 2-(2,3-dihydro-1H-inden-2-yloxy)pyrido[3,4-d]pyrimidin-4-ol]",100 to 1000
13,"Oc1nc(OC2CCc3ccccc32)nc2cnccc12 (stereo not drawn) [Example 192, 2-(2,3-dihydro-1H-inden-1-yloxy)pyrido[3,4-d]pyrimidin-4-ol]",1000 to 10000
14,"Oc1nc(OC2CCCc3ccccc32)nc2cnccc12 (stereo not drawn) [Example 196, 2-(1,2,3,4-tetrahydronaphthalen-1-yloxy)pyrido[3,4-d]pyrimidin-4-ol]",1000 to 10000
15,"Oc1nc(OC2CCOc3ccccc32)nc2cnccc12 (stereo not drawn) [Example 197, 2-(3,4-dihydro-2H-1-benzopyran-4-yloxy)pyrido[3,4-d]pyrimidin-4-ol]",100 to 1000
16,"Cn1cnc(-c2nccc3c(=O)[nH]cnc23)c1 [Example 198, 8-(1-methylimidazol-4-yl)-3H-pyrido[3,4-d]pyrimidin-4-one]",100 to 1000

# The remaining lines, values ahead:
row,IC50 [nM],SMILES
1,100 to 1000,"Oc1nc(OCCOCc2ccccc2)nc2cnccc12 [Example 30, 2-(2-phenylmethoxyethoxy)pyrido[3,4-d]pyrimidin-4-ol]"
2,≤ 100,"O=C(NCCOc1nc(O)c2ccncc2n1)c1ccccc1 [Example 31, N-[2-(4-hydroxypyrido[3,4-d]pyrimidin-2-yl)oxyethyl]benzamide]"
3,100 to 1000,"N#Cc1cccc(COc2nc(O)c3ccncc3n2)c1 [Example 32, 3-[(4-hydroxypyrido[3,4-d]pyrimidin-2-yl)oxymethyl]benzonitrile]"
4,≤ 100,"Oc1nc(Oc2ccccc2)nc2cnccc12 [Example 34, 2-phenoxypyrido[3,4-d]pyrimidin-4-ol]"
5,1000 to 10000,"Oc1nc(OCc2ccccc2C(F)(F)F)nc2cnccc12 [Example 177, 2-{[2-(trifluoromethyl)phenyl]methoxy}pyrido[3,4-d]pyrimidin-4-ol]"
6,1000 to 10000,"Oc1nc(OCc2ccccc2F)nc2cnccc12 [Example 178, 2-[(2-fluorophenyl)methoxy]pyrido[3,4-d]pyrimidin-4-ol]"
7,1000 to 10000,"Oc1nc(OCc2cccc(F)c2)nc2cnccc12 [Example 179, 2-[(3-fluorophenyl)methoxy]pyrido[3,4-d]pyrimidin-4-ol]"
8,1000 to 10000,"Oc1nc(OCc2ccc(F)cc2)nc2cnccc12 [Example 180, 2-[(4-fluorophenyl)methoxy]pyrido[3,4-d]pyrimidin-4-ol]"
9,1000 to 10000,"Oc1nc(OCc2cccc(F)c2F)nc2cnccc12 [Example 181, 2-[(2,3-difluorophenyl)methoxy]pyrido[3,4-d]pyrimidin-4-ol]"
10,1000 to 10000,"Oc1nc(OCc2cc(F)ccc2F)nc2cnccc12 [Example 182, 2-[(2,5-difluorophenyl)methoxy]pyrido[3,4-d]pyrimidin-4-ol]"
11,1000 to 10000,"Oc1nc(OCc2c(F)cccc2F)nc2cnccc12 [Example 183, 2-[(2,6-difluorophenyl)methoxy]pyrido[3,4-d]pyrimidin-4-ol]"
12,1000 to 10000,"Oc1nc(OCc2cccc3ccccc23)nc2cnccc12 [Example 184, 2-(naphthalen-1-ylmethoxy)pyrido[3,4-d]pyrimidin-4-ol]"
13,1000 to 10000,"Oc1nc(OCc2ccccc2-c2ccccc2)nc2cnccc12 [Example 185, 2-[(2-phenylphenyl)methoxy]pyrido[3,4-d]pyrimidin-4-ol]"
14,1000 to 10000,"Oc1nc(OCc2cccc(-c3ccccc3)c2)nc2cnccc12 [Example 186, 2-[(3-phenylphenyl)methoxy]pyrido[3,4-d]pyrimidin-4-ol]"
15,1000 to 10000,"Oc1nc(OCc2ccc3ccccc3c2)nc2cnccc12 [Example 187, 2-(naphthalen-2-ylmethoxy)pyrido[3,4-d]pyrimidin-4-ol]"
16,100 to 1000,"Oc1nc(OCC2CCc3ccccc32)nc2cnccc12 (stereo not drawn) [Example 190, 2-(2,3-dihydro-1H-inden-1-ylmethoxy)pyrido[3,4-d]pyrimidin-4-ol]"
17,100 to 1000,"Oc1nc(OCC2CCc3ccccc3C2)nc2cnccc12 (stereo not drawn) [Example 191, 2-(1,2,3,4-tetrahydronaphthalen-2-ylmethoxy)pyrido[3,4-d]pyrimidin-4-ol]"
18,100 to 1000,"Oc1nc(OCc2coc3ccccc23)nc2cnccc12 [Example 193, 2-(1-benzofuran-3-ylmethoxy)pyrido[3,4-d]pyrimidin-4-ol]"
19,1000 to 10000,"Oc1nc(OCC2COc3ccccc32)nc2cnccc12 (stereo not drawn) [Example 194, 2-(2,3-dihydro-1-benzofuran-3-ylmethoxy)pyrido[3,4-d]pyrimidin-4-ol]"
20,100 to 1000,"Oc1nc(OCC2CCOc3ccccc32)nc2cnccc12 (stereo not drawn) [Example 195, 2-(3,4-dihydro-2H-1-benzopyran-4-ylmethoxy)pyrido[3,4-d]pyrimidin-4-ol]"
